The results in this text go back to article PMC6013238, “Development of novel NEMO-binding domain mimetics for inhibiting IKK/NF-κB activation” (PLoS Biology, 2018).

Values joined by “and” are separate entries in the source; they are usually repeats but may differ in a detail not shown here. Equal entries are not always repeated.

The test system of data set [1] is NF-κB DNA binding activity. As to the kind of experiment: EMSA of NF-κB DNA binding activity in muscle of mdx mice after a single i.p. dose. Type of data set: in vivo, mouse. Conditions: for NF-κB DNA binding activity in quadriceps (EMSA): mdx mice, single i.p. 10 mg/kg, 1 h and 2 h post injection. As for the experimental part: To confirm that the NBD mimetics reduce IKK kinase activity, phosphorylation of IκBα by IKK in response to 10 ng/ml of TNF-α was measured by western blot at 0, 5, and 10 min after stimulation. […] To determine whether the mimetics also reduce NF-κB DNA binding activity, electrophoretic mobility shift assay (EMSA) was conducted both in vitro and in vivo. […] The addition of acetonitrile increased the stability of both ZINC compounds, especially ZINC 5 (Fig 3D).
Fig 3 Two identified small molecules reduce NF-κB DNA binding activity in vivo and in vitro. (A) Levels of p-IκBα with or without treatment in response to TNF-α were determined by western blot analysis. HEK293 cells were pretreated with DMSO, ZINC12909780 (100 μM), and ZINC5 (100 μM) for 30 min followed by the stimulation of 10 ng/ml of TNF-α for 0, 5, and 10 min. Cell lysates were prepared for immunoblot against p-IκBα. GAPDH was used as a loading control. (B) EMSA analysis detecting NF-κB DNA binding activity was performed in C2C12 myoblasts. Cells were pretreated with 200 μM of DMSO, ZINC12909780, and ZINC5 in serum-free media for 1 h. TNF-α was then added to a final concentration of 10 ng/ml and incubated for 15 min. Nuclear extract was obtained for EMSA analysis. (C) EMSA analysis assessing NF-κB DNA binding activity in vivo was performed with quadriceps from mdx mice. […] Quadriceps was harvested at 1 h and 2 h post injection for EMSA analysis. (D) The time-course pharmacokinetics of ZINC5 and ZINC12909780 in FBS media or FBS media containing acetonitrile. Underlying data can be found in S1 Data. EMSA, electrophoretic mobility shift assay; HEK293, human embryonic kidney 293 cells; i.p., intraperitoneal; NF-κB, nuclear factor κB; t1/2, half-life; TNF-α; tumor necrosis factor α. […]
Supplementary file pbio.2004663.s005.tif: S4 Fig Chronic treatment with NBD mimetics improves muscle pathology by inhibiting NF-κB DNA binding activity in mdx mice. (A) Quantification of percentage of centralized myonuclei. […]

Data set [2] in a line: Body weight of chronically treated mdx mice. The note with it: in g (unit assumed); for Body weight AVG: group average (FigS3A); for Body weight: individual mouse (FigS3A).
Data set [3] has as its system NF-κB activation. Nature of the data set: NF-κB firefly luciferase reporter assay, TNF-α-stimulated stably transfected HEK293 cells. Conditions: for NF-κB luciferase activity normalized to vehicle: Fig 2C, derivatives at 100 μM, TNF-α 10 ng/ml 3 h, vehicle = 100, single experiments; for NF-κB luciferase activity normalized to control: control = 100. Type of data set: cell-based, human. As for the experimental part: To determine whether the small molecules identified by the in silico screening inhibit NF-κB activation, a HEK293 cell line stably expressing a luciferase reporter driven by a synthetic, NF-κB-dependent promoter was utilized. To induce NF-κB activation, cells were treated with 10 ng/mL of TNF-α and harvested 3 h post treatment for analysis of luciferase activity. […] To determine whether ZINC12909780 inhibits NF-κB in a dose-dependent manner, concentrations were tested at 0, 6.25, 25, 50, and 100 μM.
Luciferase activity was normalized to untreated stimulated control cells. […] Cell viability was calculated by normalizing to untreated cells. […] Underlying data can be found in S1 Data.
HEK293 cells stably transfected with luciferase reporter plasmid driven by NF-κB were seeded in 96-well plates in triplicate and pretreated with DMSO or varying small molecules at indicated concentration for 30 min, followed by the stimulation of 10 ng/ml of TNF-α for 3 h. Cells were washed with PBS once and harvested in Passive Lysis Buffer (Promega, Madison, WI). Luciferase assay (Promega) was performed by using a luminometer according to the manufacturer’s instructions.

As for `O=C(CNc1ccc(Cl)cn1)NCCc1cccc(Br)c1` [SR12343], the “NF-κB DNA binding in TA muscle (EMSA)” value in data set [1] (9-wk-old mdx mice, single injection 30 mg/kg i.p., 2 h post injection) is recorded as “reduction in NF-κB DNA binding”. The “Body weight AVG” value is reported as 8.8 in data set [2] (Day 21); 10.48 in data set [2] (Day 23); 12.2 in data set [2] (Day 26); 13.48 in data set [2] (Day 28); 15.66 in data set [2] (Day 30); 18.96 in data set [2] (Day 32). Moreover, the “Body weight AVG” value in data set [2] (Day 34) is 19.78; in data set [2] (Day 37) it was 20.46; in data set [2] (Day 39), 21.7333; in data set [2] (Day 41), 22.4; in data set [2] (Day 44), 22.9667; in data set [2] (Day 46), 22.8667. Further, the Body weight in data set [2] (Day 21) is 8.1 and 9 and 8.6 and 10 and 8.3; in data set [2] (Day 23) it was 9.5 and 11.4 and 9.8 and 10.7 and 11; in data set [2] (Day 26) it was 10.8 and 13.9 and 12.3 and 11.7; in data set [2] (Day 28), 12.7 and 14.8 and 12.2 and 13.2 and 14.5; in data set [2] (Day 30) it was 12.5 and 17.3 and 16.6 and 15.5 and 16.4; in data set [2] (Day 32) it was 16.4 and 21.5 and 20 and 18 and 18.9. The Body weight in data set [2] (Day 34) is 16.9 and 22.5 and 20.5 and 19.4 and 19.6; in data set [2] (Day 37) it was 18.3 and 23 and 21.4 and 19.4 and 20.2; in data set [2] (Day 39), 18.2 and 24.1 and 22.9; in data set [2] (Day 41), 19.6 and 25 and 22.6; in data set [2] (Day 44), 20 and 24.7 and 24.2; in data set [2] (Day 46) it was 21 and 24 and 23.6.
`O=C(CNCCc1cc(F)cc(F)c1)Nc1ccc(Cl)cn1` [SR12460]: the “Body weight AVG” value in data set [2] (Day 21) is 8.34; in data set [2] (Day 23), 9.96; in data set [2] (Day 26) it was 11.42; in data set [2] (Day 28) it was 13.58; in data set [2] (Day 30), 14.92; in data set [2] (Day 32), 18.56. The “Body weight AVG” value in data set [2] (Day 34) is 19.58; in data set [2] (Day 37), 20.22; in data set [2] (Day 39), 21.5333; in data set [2] (Day 41), 22.4; in data set [2] (Day 44), 22.7333; in data set [2] (Day 46), 23.7. Moreover, the Body weight in data set [2] (Day 21) was 8.5 and 8.8 and 6.9 and 9; in data set [2] (Day 23) it was 10.5 and 9.7 and 8.5 and 10.3 and 10.8; in data set [2] (Day 26), 12.6 and 10.7 and 10.9 and 11.3 and 11.6; in data set [2] (Day 28), 14.1 and 14.6 and 13.2 and 12.6 and 13.4; in data set [2] (Day 30), 16.1 and 13.5 and 14.9 and 14.4 and 15.7; in data set [2] (Day 32), 20.3 and 16.4 and 20.2 and 18.3 and 17.6. Moreover, the Body weight in data set [2] (Day 34) is 21 and 17.1 and 21.1 and 18.8 and 19.9; in data set [2] (Day 37), 22.2 and 18.3 and 19.3 and 19.1; in data set [2] (Day 39), 22.3 and 18.8 and 23.5; in data set [2] (Day 41) it was 23.1 and 19.5 and 24.6; in data set [2] (Day 44) it was 23.7 and 19.3 and 25.2; in data set [2] (Day 46), 25 and 20.1 and 26.
For the compound `O=C(COC(=O)Cc1ccccc1F)Nc1ccc(Cl)cn1` [ZINC5], the “NF-κB luciferase activity normalized to vehicle” value is 58.79 and 64.16 and 89.81 and 46.87 and 48.05 in data set [3]; “lowered NF-κB activity robustly” in data set [3] (listed as Zinc5). Further, the “NF-κB luciferase activity normalized to control” value in data set [3] (Fig 2E, 25 μM) is 78.88 and 74.23 and 94.1 and 85.57 and 85.27; in data set [3] (Fig 2E, 50 μM) it was 78.97 and 56.84 and 56.56 and 66.34; in data set [3] (Fig 2E, 100 μM), 40.8 and 50.51 and 60.75 and 33.05 and 42.78. Moreover, the “NF-κB DNA binding activity in quadriceps (EMSA)” value in data set [1] is on record as “inhibited NF-κB DNA binding activity”.
On to `Nc1ncccc1C(=O)OCC(=O)Nc1ccc(Cl)cc1F` [ZINC12909780], for which the “NF-κB luciferase activity normalized to control” value in data set [3] (Fig 2B, 6.25 μM (log 0.79588)) is 96.2175 and 102.44 and 115.164; in data set [3] (Fig 2B, 25 μM (log 1.39794)), 93.2591 and 96.1802 and 73.5256. Besides, in data set [1], the “NF-κB DNA binding activity in quadriceps (EMSA)” value is on record as “inhibited NF-κB DNA binding activity”.
